“And” between values parts separate entries of the source, which are not always exact repeats. Equal values may be shown once.
Assays:
Conditions in all cases: incubation time: 72 h
MDA-MB-436 = assay: normalised viability (% of control), CellTiter-Blue; higher = more viable cells (about 100 = DMSO control)
Procedure, shortened: (§1)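 Breast cancer cell lines were treated for 72 h in 384-well format and measured by CellTiter-Blue fluorescence at 560/590 nm. Results were normalised per plate to vehicle (100) and a positive kill control (0). The entry is normalised viability at a single listed concentration of the series.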

HCC1599 [1] = assay: as above
Procedure, shortened: as §1

BT-474 = assay: as above
Procedure, shortened: as §1

HCC1143 = assay: as above
Procedure, shortened: as §1

HDQ-P1 = assay: as above
Procedure, shortened: as §1

DU-4475 = assay: as above
Procedure, shortened: as §1

HCC1937 = assay: as above
Procedure, shortened: as §1

MFM-223 = assay: as above
Procedure, shortened: as §1

CAL-51 = assay: as above
Procedure, shortened: as §1

CAL-148 = assay: as above
Procedure, shortened: as §1

Hs578T = assay: as above
Procedure, shortened: as §1

BT-549 = assay: as above
Procedure, shortened: as §1

CAL-85-1 = assay: as above
Procedure, shortened: as §1

SK-BR-3 [2] = assay: as above
Procedure, shortened: as §1

CAL-120 = assay: as above
Procedure, shortened: as §1

MDA-MB-453 = assay: as above
Procedure, shortened: as §1

MDA-MB-468 [3] = assay: as above
Procedure, shortened: as §1

MDA-MB-231 [4] = assay: as above
Procedure, shortened: as §1

HCC1599 [5] = assay: drug sensitivity score (DSS), CellTiter-Glo (DSS (AUC-based score)); higher = stronger drug effect (viability inhibition or cytotoxicity); extreme values may be limits of the assay
Procedure, shortened: (§2)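 Breast cancer cell lines were seeded in 20 µl suspension into 384-well plates already holding compound and incubated for 72 h. Each compound was tested at 5 concentrations in 10-fold steps across its own 10,000-fold range. Plates were normalised to 0.1 % DMSO and a positive kill control after CellTox Green and then CellTiter-Glo readings. The area under the fitted dose-response curve served as the basis for the drug sensitivity score.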

SK-BR-3 [6] = assay: as above
Procedure, shortened: as §2

MDA-MB-468 [7] = assay: as above
Procedure, shortened: as §2

MDA-MB-231 [8] = assay: as above
Procedure, shortened: as §2

Cc1cc2c(F)c(Oc3ncnn4cc(OC[C@@H](C)O)c(C)c34)ccc2[nH]1 [Brivanib]
normalised viability [%]
Conditions	0.3 nM	1 nM	3 nM	10 nM	100 nM	1000 nM
BT-474	–	112	–	–	117	94.5
BT-549	–	107	–	–	90.6	109
CAL-51	96.7	–	96.8	95.7	–	–
CAL-85-1	88.4	–	86.2	89.1	–	–
CAL-120	–	89.3	–	–	82.5	93.2
CAL-148	92.7	–	90.8	93.1	–	–
DU-4475	102	–	93.6	93.4	–	–
HCC1143	–	85.2	–	–	83.3	84.3
HCC1599 [1]	–	87.1	–	–	100	116
HCC1937	–	87.8	–	–	104	97.6
HDQ-P1	94.9	–	115	96.3	–	–
Hs578T	–	98.1	–	–	109	95.7
MDA-MB-231 [4]	–	113	–	–	89.2	99.2
MDA-MB-436	–	113	–	–	93	96.4
MDA-MB-453	99.6	–	110	101	–	–
MDA-MB-468 [3]	–	93.7	–	–	111	112
MFM-223	–	95.5	–	–	92.8	97.8
SK-BR-3 [2]	–	98.8	–	–	112	113

Conditions	drug sensitivity score
HCC1599 [5]	0
MDA-MB-231 [8]	0
MDA-MB-468 [7]	0
SK-BR-3 [6]	0

CCCCCOC(=O)Nc1nc(=O)n([C@@H]2O[C@H](C)[C@@H](O)[C@H]2O)cc1F [Capecitabine]
Conditions	normalised viability
BT-474, 10 nM	124% and 104%
BT-474, 1000 nM	120% and 108%
BT-474, 10000 nM	124% and 105%
BT-549, 10 nM	91.7% and 86.6%
BT-549, 1000 nM	96% and 104%
CAL-51, 3 nM	113% and 108%
CAL-51, 30 nM	105% and 98.2%
CAL-51, 100 nM	103%
CAL-85-1, 3 nM	87.5% and 102%
CAL-85-1, 30 nM	88.5% and 90.9%
CAL-85-1, 100 nM	91.8% and 103%
CAL-120, 10 nM	82.6% and 98.9%
CAL-120, 1000 nM	83.9% and 100%
CAL-120, 10000 nM	91.1% and 96.5%
CAL-148, 3 nM	91.9% and 96%
CAL-148, 30 nM	89.1% and 88.1%
CAL-148, 100 nM	92.8% and 107%
DU-4475, 3 nM	91.8% and 93.5%
DU-4475, 30 nM	83.6% and 88.7%
DU-4475, 100 nM	90.9% and 114%
HCC1143, 10 nM	77.9% and 97.9%
HCC1143, 1000 nM	89.9% and 103%
HCC1143, 10000 nM	84.2% and 91.9%
HCC1599 [1], 10 nM	99.6% and 100%
HCC1599 [1], 10000 nM	96.4% and 111%
HCC1937, 10 nM	80.9% and 86%
HCC1937, 1000 nM	88% and 75.8%
HCC1937, 10000 nM	87.6% and 85.8%
HDQ-P1, 3 nM	94.8% and 95.5%
HDQ-P1, 30 nM	91.5%
HDQ-P1, 100 nM	102% and 94.6%
Hs578T, 10 nM	105% and 116%
Hs578T, 1000 nM	101% and 104%
Hs578T, 10000 nM	107% and 93.6%
MDA-MB-231 [4], 10 nM	94.2% and 74.2%
MDA-MB-231 [4], 1000 nM	108% and 87%
MDA-MB-231 [4], 10000 nM	110% and 97.4%
MDA-MB-436, 1000 nM	72.3% and 89%
MDA-MB-436, 10000 nM	83.6% and 89%
MDA-MB-453, 3 nM	110% and 101%
MDA-MB-453, 30 nM	95.9% and 104%
MDA-MB-453, 100 nM	97% and 94%
MDA-MB-468 [3], 10 nM	106% and 131%
MDA-MB-468 [3], 1000 nM	108% and 104%
MDA-MB-468 [3], 10000 nM	104%
MFM-223, 10 nM	83.5% and 100%
MFM-223, 1000 nM	93.6% and 100%
MFM-223, 10000 nM	90.6% and 99.6%
SK-BR-3 [2], 10 nM	107% and 86.8%
SK-BR-3 [2], 1000 nM	108% and 93.6%
SK-BR-3 [2], 10000 nM	78.4% and 85.5%

Conditions	drug sensitivity score
HCC1599 [5]	0
MDA-MB-231 [8]	0
MDA-MB-468 [7]	0
SK-BR-3 [6]	0

— the supplement of paper PMC4862054
